Reference: paper PMC12111564, “Extended Family of Thiophosphoryl-Appended Pd(II) Pincer Complexes with a Deprotonated Amide Core: Synthesis and Biological Evaluation” (International Journal of Molecular Sciences, 2025)

Tests used:
[1] = Stability in DMSO solution by 31P NMR monitoring; type: physicochemical; details: at least for several days
From the text: The identities and structures of both free amides 2–8 and their cyclopalladated derivatives were unambiguously confirmed based on the IR and multinuclear NMR spectroscopic data (including different 2D NMR techniques), as well as elemental analyses, which are presented in detail in Section 3 (Materials and Methods) and Figures S1–S31 in the Supporting Information (SI). The realization of metalation of the central secondary amide unit in the resulting complexes was supported by the lack of NH proton singlets in the ^1H NMR spectra, as well as the absence of amide II and amide A bands in the IR spectra. The coordination of the thiophosphoryl pendant arm was evidenced by a strong downfield shift of the phosphorus resonance (ΔδP = 8.1–17.4 ppm) and the displacement of the P=S bond stretches towards lower frequencies, which reached up to 65 cm^−1. The coordination of the additional N- or S-donor unit was indirectly indicated by considerable shifts of the signals of CH/CH3 protons or quaternary carbon nuclei located in the close proximity to the heteroatom (for example, ΔδH for the methyl substituent in the thioether group of 13a,b was more than 0.65 ppm, while a coordination shift of the proton signal, corresponding to the CH unit adjacent to the nitrogen atom of the pyridine ring of 9, composed 0.45 ppm).

[2] = test system: prostate adenocarcinoma (PC3); assay: MTT cytotoxicity assay, PC3; type: cell-based, human; details: 48 h exposure, read-out: IC50 ± SD, PC3
Description: (§1) The cytotoxic activity of the complexes obtained was screened against several human solid and hematopoietic cancer cell lines using the conventional MTT assay. To evaluate their selectivity for cancerous over non-cancerous cells, analogous tests were performed with pseudonormal human embryonic kidney (HEK293) and breast epithelial (HBL100) cell lines.
(§2) The cytotoxicity of the compounds obtained was investigated on human colorectal carcinoma (HCT116), breast cancer (MCF7), prostate adenocarcinoma (PC3), glioblastoma (U251), ovarian adenocarcinoma (Scov3), chronic myelogenous leukemia (K562 and K562/iS9), multiple plasmacytoma (AMO1), and acute lymphoblastic leukemia (H9) cell lines, as well as human embryonic kidney (HEK293) and mammary epithelial (HBL100 and HBL100/Dox) cells used as non-cancerous cell lineages. All the cell lines were obtained from American Type Culture Collection (ATCC). The tested compounds were initially dissolved in DMSO. Cisplatin was obtained from a commercial source (as an infusion concentrate in natural saline solution). The experiments were performed using the conventional MTT assay (ICN Biomedicals, Eschwege, Germany) according to the previously published procedure.

[3] = test system: human embryonic kidney (HEK293); assay: MTT cytotoxicity assay, HEK293; type: cell-based; details: 48 h exposure, non-cancerous cells, read-out: IC50 ± SD, HEK293
Description: as §1, §2

glioblastoma (U251) = assay: MTT cytotoxicity assay, U251; type: cell-based, human
Description: as §1, §2

[4] = test system: ovarian adenocarcinoma (Scov3); assay: MTT cytotoxicity assay, Scov3; type: cell-based, human
Description: as §1, §2

[5] = test system: human colorectal carcinoma (HCT116); assay: MTT cytotoxicity assay, HCT116; type: cell-based; details: 48 h exposure, read-out: IC50 ± SD, HCT116
Description: as §1, §2

[6] = test system: doxorubicin-resistant subline of chronic myelogenous leukemia cells (K562/iS9); assay: MTT cytotoxicity assay, K562/iS9; type: cell-based, human; details: 48 h exposure, read-out: IC50 ± SD, K562/iS9
Description: as §1, §2

[7] = test system: chronic myelogenous leukemia (K562); assay: MTT cytotoxicity assay, K562; type: cell-based, human; details: 48 h exposure, read-out: IC50 ± SD, K562
Description: as §1, §2

[8] = test system: multiple plasmacytoma (AMO1); assay: MTT cytotoxicity assay, AMO1; type: cell-based, human; details: 48 h exposure, read-out: IC50 ± SD, AMO1
Description: as §1, §2

[9] = test system: mammary epithelial cells HBL100; assay: MTT cytotoxicity assay, HBL100; type: cell-based, human; details: 48 h exposure, non-cancerous cells, read-out: IC50 ± SD, HBL100
Description: as §1, §2

[10] = test system: doxorubicin-resistant mammary epithelial cells HBL100/Dox; assay: MTT cytotoxicity assay, HBL100/Dox; type: cell-based, human; details: 48 h exposure, doxorubicin-resistant clone, read-out: IC50 ± SD, HBL100/Dox
Description: as §1, §2

[11] = test system: acute lymphoblastic leukemia (H9); assay: MTT cytotoxicity assay, H9; type: cell-based, human; details: 48 h exposure, read-out: IC50 ± SD, H9
Description: as §1
as §2, with “Cisplatin was obtained from a commercial source (as an infusion concentrate in natural saline solution).” left out

breast cancer (MCF7) = assay: MTT cytotoxicity assay, MCF7; type: cell-based, human; details: 48 h exposure, read-out: IC50 ± SD, MCF7
Description: as §1, §2

[12] = test system: Micrococcus luteus (VKM Ac-2230); assay: Agar well diffusion, M. luteus; type: cell-based
Description: (§3) The microbial strains Bacillus subtillis (VKM B-501), Micrococcus luteus (VKM Ac-2230), and Groenewaldozyma auringiensis (VKM Y-2927) were used for antimicrobial activity tests. All strains were obtained from the All-Russian Collection of Microorganisms (VKM) at the Skryabin Institute of Biochemistry and Physiology of Microorganisms, Pushchino Scientific Center of Biological Research. B. subtilis and M. luteus were grown on the following medium (g/L): aminopeptide 60 mL; tryptone 5.0 g; yeast extract 1.0 g; soybean extract 30 mL; bacto-agar 15.0 g; final pH 7.2. G. auringiensis was grown on malt extract medium containing the following medium (g/L): malt extract 12.75; dextrin 2.75; glycerol 2.35; gelatin peptone 0.78; bacto-agar 15; final pH 5.4. The antimicrobial activity of ligand 17 and its cyclopalladated derivative 18 (both in the racemic form) was studied by the agar well diffusion method. The overnight grown culture of each strain (100 µL) was applied to the surface of the solid medium, then spread on agar plates using a glass spreader, and left for 30 min. The wells were cut in the culture plates using a sterilized glass tube (4 mm in diameter), and each compound sample was dissolved in DMSO to a final concentration of 0.25 or 2.5 mM (10 µL) and was placed in each well. After this, the plates were kept at room temperature for 3 h to improve the diffusion of the compounds and incubated at 28 °C for 24 h. DMSO (15%) was used as a negative control, while kanamycin (50 mg/mL) was used as a positive control. The antimicrobial activity was determined by measuring the inhibition zone around each well as a mean of three replicates.

[13] = test system: Bacillus subtillis (VKM B-501); assay: Agar well diffusion, B. subtillis; type: cell-based
Description: as §3

[14] = test system: Groenewaldozyma auringiensis (VKM Y-2927); assay: Agar well diffusion, G. auringiensis; type: cell-based
Description: as §3

[15] = test system: doxorubicin-resistant mammary epithelial cells HBL100/Dox; details: cited from earlier work
[16] = test system: doxorubicin-resistant subline of chronic myelogenous leukemia cells (K562/iS9); details: cited from earlier work
[17] = agar well diffusion, 0.25 or 2.5 mM, racemic form

SMILES	IC50 [2] [µM]	IC50 [3] [µM]	IC50 [5] [µM]	IC50 [6] [µM]	IC50 [7] [µM]	IC50 [8] [µM]	IC50 [9] [µM]	IC50 [10] [µM]	IC50 [11] [µM]	IC50 (breast cancer (MCF7)) [µM]	other results
O=C1c2cc(Cl)cc[n+]2[Pd-2]2([Cl])[S+]=P(c3ccccc3)(c3ccccc3)C(c3ccccc3)[N]12 (racemic) [Compound 9, [κ^3-S,N,N-(L)Pd(II)Cl] complex]	8 ± 0.5	10 ± 4	7 ± 0.5	6.2 ± 1.8	8 ± 1.5	2.4 ± 0.6	6.5 ± 1.5	10.5 ± 1.5	3.2 ± 0.4	6.2 ± 2	stability in solution (DMSO) [1]: stable in solution; IC50 (glioblastoma (U251)): 9 ± 1 µM; IC50 [4]: 8 ± 0.7 µM
O=C1c2ccc3ccccc3[n+]2[Pd-2]2([Cl])[S+]=P(c3ccccc3)(c3ccccc3)C(c3ccccc3)[N]12 (racemic) [Compound 10a, [κ^3-S,N,N-(L)Pd(II)Cl] complex]	33 ± 3	15 ± 4	22 ± 2				> 60	> 60		> 65	
O=C1c2sc3ccccc3[n+]2[Pd-2]2([Cl])[S+]=P(c3ccccc3)(c3ccccc3)C(c3ccccc3)[N]12 (racemic) [Compound 12, [κ^3-S,N,N-(L)Pd(II)Cl] complex]	10 ± 2.8	6.5 ± 2.2	11.3 ± 3.1	2 ± 0.4	4.2 ± 0.8	3.7 ± 0.7	12 ± 3.5	6.7 ± 1.5	2.2 ± 0.7	19 ± 4.2	
C[S+]1CC(=O)[N]2C(c3ccccc3)P(c3ccccc3)(c3ccccc3)=[S+][Pd-2]21[Cl] (racemic) [Compound 13a, [κ^3-S,N,S-(L)Pd(II)Cl] complex]	30 ± 2.5	22 ± 6	17 ± 2	15.2 ± 1.8	14.2 ± 2.2	4.2 ± 0.3	32 ± 6	54 ± 5.6	4 ± 0.6	31 ± 6	
C[S+]1c2ccccc2C(=O)[N]2C(c3ccccc3)P(c3ccccc3)(c3ccccc3)=[S+][Pd-2]21[Cl] (racemic) [Compound 14, [κ^3-S,N,S-(L)Pd(II)Cl] complex]	4.2 ± 1.4	4.9 ± 1.5	4.5 ± 1.1	1.7 ± 0.2	2.1 ± 0.2	1.2 ± 0.3	8.4 ± 0.5	2.1 ± 0.3	2.3 ± 0.5	9.2 ± 0.9	
O=C1c2ccc3ccccc3[n+]2[Pd-2]2([Cl])[S+]=P(c3ccccc3)(c3ccccc3)C[N]12 (stereo not shown) [Compound 10b, [κ^3-S,N,N-(L)Pd(II)Cl] complex]	23 ± 1	20 ± 4	14 ± 4				34.2 ± 2.8	46 ± 1.4		31 ± 2	stability in solution (DMSO) [1]: stable in solution
O=C1c2cccc3ccc[n+](c23)[Pd-2]2([Cl])[S+]=P(c3ccccc3)(c3ccccc3)C[N]12 (stereo not shown) [Compound 11, [κ^3-S,N,N-(L)Pd(II)Cl] complex]	31 ± 1	41 ± 4	18 ± 2				29 ± 5	41 ± 1		46 ± 4	
C[S+]1CC(=O)[N]2CP(c3ccccc3)(c3ccccc3)=[S+][Pd-2]21[Cl] (stereo not drawn) [Compound 13b, [κ^3-S,N,S-(L)Pd(II)Cl] complex]	30 ± 2	34 ± 2	23 ± 7				52 ± 4	> 60		40 ± 5	
CC(C)C(NC(=O)c1ccccn1)P(=S)(c1ccccc1)c1ccccc1 (stereo not shown) [Compound 17]											inhibitory effect on microorganisms, M. luteus [12, 17]: did not exert any inhibitory effect; inhibitory effect on microorganisms, B. subtillis [13, 17]: did not exert any inhibitory effect; inhibitory effect on microorganisms, G. auringiensis [14, 17]: did not exert any inhibitory effect
NC[C@H]1O[C@H](O[C@H]2[C@H](O)[C@@H](O[C@H]3O[C@H](CO)[C@@H](O)[C@H](N)[C@H]3O)[C@H](N)C[C@@H]2N)[C@H](O)[C@@H](O)[C@@H]1O [Km, kanamycin, reference compound]											Inhibition Zone, M. luteus (VKM Ac-2230) ([12]; 50 mg/mL, positive control): 15.0 ± 1.0 mm; Inhibition Zone, B. subtillis (VKM B-501) ([13]; 50 mg/mL, positive control): 10.0 ± 0.8 mm; Inhibition Zone, G. auringiensis (VKM Y-2927) ([14]; 50 mg/mL, positive control): 0 mm
N.N.[Cl][Pt][Cl] [cisplatin, reference compound]	16 ± 3	12.5 ± 1.5	18 ± 2	16 ± 2	15.5 ± 0.5	3.2 ± 0.6	14.6 ± 3.6	23.6 ± 3.6		25 ± 4	
COc1cccc2c1C(=O)c1c(O)c3c(c(O)c1C2=O)C[C@@](O)(C(=O)CO)C[C@@H]3O[C@H]1C[C@H](N)[C@H](O)[C@H](C)O1 [doxorubicin]											times less active against the resistant clone (HBL100/Dox vs HBL100) [15]: more than 80 times; factor of decrease in efficiency, K562/iS9 vs parental K562 [16]: 20
